Reference: ChEMBL document CHEMBL1126481, “Low molecular weight neurokinin NK2 antagonists” (Bioorg Med Chem Lett, 1993)
Peptide text beside a SMILES is read from it.

Assays:
[1] = target: T1, Substance-K receptor (Rattus norvegicus) (UniProt P16610); assay: In vitro for antagonism against neurokinin NK2 receptor in rat colon muscularis mucosae; assay type: functional, tissue-based; conditions: Muscularis mucosa
T1 sequence (whole entry): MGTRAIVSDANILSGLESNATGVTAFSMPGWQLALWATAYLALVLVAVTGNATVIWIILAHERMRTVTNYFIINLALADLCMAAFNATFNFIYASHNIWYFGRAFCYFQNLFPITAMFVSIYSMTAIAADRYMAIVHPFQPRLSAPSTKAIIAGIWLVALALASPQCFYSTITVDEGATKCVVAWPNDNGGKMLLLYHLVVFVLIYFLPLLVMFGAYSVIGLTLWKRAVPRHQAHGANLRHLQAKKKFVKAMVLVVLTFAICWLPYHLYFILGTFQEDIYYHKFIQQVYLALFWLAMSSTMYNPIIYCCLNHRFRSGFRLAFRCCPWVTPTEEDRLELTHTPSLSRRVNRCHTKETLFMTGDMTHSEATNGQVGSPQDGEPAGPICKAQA

[2] = Biological half life when administered at 0.1 umol/kg intravenously to guinea pig in GR-64349 antagonism; assay type: ADME, organism-based, Cavia porcellus; conditions: in vivo, iv
[3] = target: Substance-P receptor (Cavia porcellus) (UniProt P30547); assay: The compound was tested […] for antagonism against neurokinin NK1 receptor in isolated guinea pig trachea.; assay type: functional
[4] = target: T2, Substance-K receptor (Cavia porcellus) (UniProt Q64077); assay: The compound was tested […] for antagonism against neurokinin NK2 receptor in isolated guinea pig trachea.; assay type: functional
T2 sequence (whole entry): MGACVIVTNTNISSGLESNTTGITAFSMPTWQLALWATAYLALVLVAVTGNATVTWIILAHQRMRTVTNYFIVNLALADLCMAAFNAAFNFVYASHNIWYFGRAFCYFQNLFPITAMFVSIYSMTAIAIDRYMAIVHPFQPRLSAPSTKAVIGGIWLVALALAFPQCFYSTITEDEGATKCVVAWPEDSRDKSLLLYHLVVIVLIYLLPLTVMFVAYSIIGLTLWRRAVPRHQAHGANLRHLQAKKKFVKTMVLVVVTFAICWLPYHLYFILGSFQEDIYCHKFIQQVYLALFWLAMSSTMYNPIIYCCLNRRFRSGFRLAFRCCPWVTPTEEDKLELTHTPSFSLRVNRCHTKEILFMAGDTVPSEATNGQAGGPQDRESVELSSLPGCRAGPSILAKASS

[5] = Biological half life when administered at 5 umol/kg intravenously to guinea pig in GR-64349 antagonism; assay type: ADME, organism-based, Cavia porcellus; conditions: in vivo, iv
[6] = species: Oryctolagus cuniculus; assay: Tested for antagonistic activity of compound in endothelium-deprived rabbit pulmonary artery; assay type: functional; conditions: read-out: pA2 (converted)
[7] = target: T1, Substance-K receptor (Rattus norvegicus); assay: The compound was tested in vitro for antagonism against Tachykinin receptor 2 in rat colon muscularis mucosae.; assay type: functional, tissue-based; conditions: Muscularis mucosa
[8] = target: T2, Substance-K receptor (Cavia porcellus); assay: The compound was tested in vitro for antagonism against Tachykinin receptor 2 in isolated guinea pig trachea; assay type: functional, tissue-based

Substance-P receptor (Cavia porcellus), sequence (P30547 whole entry): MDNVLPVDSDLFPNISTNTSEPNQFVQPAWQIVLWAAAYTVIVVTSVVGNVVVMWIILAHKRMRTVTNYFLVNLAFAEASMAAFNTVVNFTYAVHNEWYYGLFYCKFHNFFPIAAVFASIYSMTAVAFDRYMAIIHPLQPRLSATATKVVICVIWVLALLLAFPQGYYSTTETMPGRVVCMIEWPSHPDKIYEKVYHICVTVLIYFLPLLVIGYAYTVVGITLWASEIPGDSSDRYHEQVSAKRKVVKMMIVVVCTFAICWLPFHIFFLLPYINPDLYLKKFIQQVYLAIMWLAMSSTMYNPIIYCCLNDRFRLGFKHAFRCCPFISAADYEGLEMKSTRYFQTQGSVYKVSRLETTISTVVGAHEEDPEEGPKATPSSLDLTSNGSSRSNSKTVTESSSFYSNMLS

SMILES | pKB [1] | further results
C[C@H](NC(=O)c1ccccc1)C(=O)N[C@@H](C)C(=O)N[C@H](Cc1c[nH]c2ccccc12)C(=O)N(C)C | 6.45 | –
C[C@H](NC(=O)c1ccccc1)C(=O)N[C@@H](C)C(=O)N[C@H](Cc1c[nH]c2ccccc12)C(=O)N[C@@H](Cc1ccccc1)C(=O)O | 6.6 | –
C[C@H](NC(=O)c1ccccc1)C(=O)N[C@@H](C)C(=O)N[C@H](Cc1c[nH]c2ccccc12)C(=O)N(C)CCc1ccccc1 | 7.4 | –
C[C@H](NC(=O)CNC(=O)C1CCCCC1)C(=O)N[C@H](Cc1c[nH]c2ccccc12)C(=O)N[C@@H](Cc1ccccc1)C(=O)N(C)C (HELM PEPTIDE1{[O=C(C1CCCCC1)[*:2]].G.A.[dW].F.[CN(C)[*:1]]}$$$$V2.0) | 9.05 | half-life [2]: 26 min; pKB [3]: 5.1; pKB [4]: 9.3
CC(C)CCN(C)C(=O)[C@@H](Cc1c[nH]c2ccccc12)NC(=O)[C@H](C)NC(=O)c1c[nH]c(-c2ccccc2)n1 | 7.64 | half-life [5]: 140 min; pKB [3]: 4.9; pKB [4]: 7.9
C[C@H](NC(=O)CNC(=O)c1ccccc1)C(=O)N[C@H](Cc1c[nH]c2ccccc12)C(=O)N[C@@H](Cc1ccccc1)C(=O)N(C)C | 8.87 | –
C[C@H](NC(=O)c1ccccc1)C(=O)N[C@@H](C)C(=O)N[C@H](Cc1c[nH]c2ccccc12)C(=O)N[C@@H](Cc1ccccc1)C(=O)N(C)C | 8.56 | –
CC(=O)NC1(c2ccccc2)CCN(CC[C@H](CN(C)C(=O)c2ccccc2)c2ccc(Cl)c(Cl)c2)CC1 [SAREDUTANT] | – | Kb [6]: 0.0501 nM
CC(Cc1c[nH]c2ccccc12)NC(=O)[C@H](C)NC(=O)[C@H](C)NC(=O)c1ccccc1 (some centres not stated) | < 5 | pKB [7]: 6.66; pKB [8]: 7.4
CC(C)CCN(C)C(=O)[C@@H](Cc1c[nH]c2ccccc12)NC(=O)[C@H](C)NC(=O)[C@H](C)NC(=O)c1ccccc1 | 8 | –
C[C@H](NC(=O)c1ccccc1)C(=O)N[C@@H](C)C(=O)NCCc1c[nH]c2ccccc12 | 6.02 | –
C[C@H](NC(=O)c1ccccc1)C(=O)N[C@@H](C)C(=O)N[C@H](C#N)Cc1c[nH]c2ccccc12 | 6.8 | half-life [5]: 20 min; pKB [4]: 7.4
